This assay deals with human S1P3 receptor (Homo sapiens (Human), UniProt Q99500). Description: Activation or block of activation of human S1P3 receptor, Ca+2 FLIPR assay. It is filed as cell-based. The method, then: Compounds were assessed for their ability to activate or block activation of the human S1P3 receptor in T24 cells stably expressing the human S1P3 receptor. Ten thousand cells/well were plated into 384-well poly-D-lysine coated plates one day prior to use. The growth media for the S1P3 receptor expressing cell line was McCoy's 5A medium supplemented with 10% charcoal-treated fetal bovine serum (FBS), 1% antibiotic-antimycotic and 400 μg/ml geneticin. On the day of the experiment, the cells were washed twice with Hank's Balanced Salt Solution supplemented with 20 mM HEPES (HBSS/Hepes buffer). […] Extracellular dye was removed by washing the cell plates four times prior to placing the plates in the FLIPR (Fluorometric Imaging Plate Reader, Molecular Devices). Ligands were diluted in HBSS/Hepes buffer and prepared in 384-well microplates. The positive control, Sphingosine-1-Phosphate (S1P), was diluted in HBSS/Hepes buffer with 4 mg/ml fatty acid free bovine serum albumin. The FLIPR transferred 12.5 μl from the ligand microplate to the cell plate and took fluorescent measurements for 75 seconds, taking readings every second, and then for 2.5 minutes, taking readings every 10 seconds. […] IC50 values were determined through a […] analysis using the Levenburg Marquardt algorithm.
Chain of human S1P3 receptor (Q99500 whole entry): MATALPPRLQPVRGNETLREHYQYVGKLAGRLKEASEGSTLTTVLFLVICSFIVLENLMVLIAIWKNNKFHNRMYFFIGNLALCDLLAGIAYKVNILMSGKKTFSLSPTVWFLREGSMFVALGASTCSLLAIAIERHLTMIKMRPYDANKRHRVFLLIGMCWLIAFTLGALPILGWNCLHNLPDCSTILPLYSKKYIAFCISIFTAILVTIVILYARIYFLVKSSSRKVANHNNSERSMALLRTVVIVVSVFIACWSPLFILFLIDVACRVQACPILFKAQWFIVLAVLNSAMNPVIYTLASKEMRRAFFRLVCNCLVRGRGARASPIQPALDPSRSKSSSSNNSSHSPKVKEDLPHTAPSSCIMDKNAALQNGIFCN

The mark [1] stands for this setting: T24 cells stably expressing the human S1P3 receptor, FLIPR Ca+2 response, 0.61 nM to 10,000 nM, read-out: S1P3 IC50.
[2] abbreviates: T24 cells stably expressing the human S1P3 receptor, value in brackets.

Each structure is given as a SMILES string. Like-named read-outs stand apart in the source and are kept apart here.

As a reminder, the IC50 is the midpoint of a concentration-inhibition curve. With `CC(C)c1c(C(=O)NCc2ccc(F)c(F)c2)c2ccc(OC(=O)C(C)(C)C)cc2n1Cc1ccccc1` [Compound 22, 1-Benzyl-3-(3,4-difluorobenzylcarbamoyl)-2-isopropyl-1H-indol-6-yl Pivalate], the “S1P3 (% inh)” value is on record as 4 nM (99) %. For the same compound, the IC50 (read-out: S1P3 IC50) turned out to be 0.004 µM.

`CCOC(=O)c1ccc2c(C(=O)NCc3ccc(F)cc3)c(C(C)C)n(Cc3ccccn3)c2c1` [Compound 50, Ethyl 3-(4-Fluorobenzylcarbamoyl)-2-isopropyl-1-(pyridin-2-ylmethyl)-1H-indole-6-carboxylate]: the IC50 under setting [1] was found to be 0.069 µM. The “S1P3 (% inh)” value under setting [2] is 100%.

As to `CC(C)OC(=O)c1ccc2c(C(=O)NCc3ccc(F)c(F)c3)c(C(C)C)n(Cc3ccccc3)c2c1`, under setting [1], the IC50 is 0.045 µM. For the same compound, the “S1P3 (% inh)” value under setting [2] is reported as 99%.

As for `CC(C)c1c(C(=O)NCc2ccc(F)c(F)c2)c2ccc(NC3=NCCS3)cc2n1Cc1ccccn1` [Compound 184, N-(3,4-Difluorobenzyl)-6-(4,5-dihydrothiazol-2-ylamino)-2-isopropyl-1-(pyridin-2-ylmethyl)-1H-indole-3-carboxamide], the IC50 under setting [1] was greater than 8.3 µM. The “S1P3 (% inh)” value under setting [2] was determined as 80%.

With `CC(C)c1c(C(=O)NCc2cccnc2)c2ccc(OC3CCCC3)cc2n1Cc1ccccn1`, under setting [1], the half-maximal inhibitory concentration (IC50) is 0.086 µM. Moreover, under setting [2], the “S1P3 (% inh)” value is listed as 95%.

As to `CC(C)Oc1ccc2c(C(=O)NCc3cccnc3)c(C(C)C)n(Cc3ccccn3)c2c1`, under setting [2], the “S1P3 (% inh)” value is reported as “ND (98) %”.

In the case of `CC(C)c1c(C(=O)NCc2ccc(F)c(F)c2)c2ccc(NC3CCCC3)cc2n1Cc1ccccn1` [Compound 183, 6-(Cyclopentylamino)-N-(3,4-difluorobenzyl)-2-isopropyl-1-(pyridin-2-ylmethyl)-1H-indole-3-carboxamide], the IC50 under setting [1] was 0.152 µM. Besides, the “S1P3 (% inh)” value under setting [2] is on record as 100%.

Take `CC(C)c1c(C(=O)NCc2ccc(F)c(F)c2)c2ccc(N3CCOCC3)cc2n1Cc1ccccn1` [Compound 207, N-(3,4-Difluorobenzyl)-2-isopropyl-6-morpholino-1-(pyridin-2-ylmethyl)-1H-indole-3-carboxamide]: the IC50 under setting [1] worked out at 0.13 µM. Further, the “S1P3 (% inh)” value under setting [2] was determined as 97%.

Take `CC(C)c1c(C(=O)NCc2ccc(F)cc2)c2ccc(NC3CCCC3)cc2n1Cc1ccccc1` [Compound 192, 1-Benzyl-6-(cyclopentylamino)-N-(4-fluorobenzyl)-2-isopropyl-1H-indole-3-carboxamide]: the “S1P3 (% inh)” value was 70 nM (100) %. Also, for the setting “read-out: S1P3 IC50”, the IC50 turned out to be 0.07 µM.

For the compound `CC(C)c1c(C(=O)NCc2ccc(C(F)(F)F)nc2)c2ccc(OC3CCCC3)cc2n1Cc1ccccn1` [Compound 142, 6-(Cyclopentyloxy)-2-isopropyl-1-(pyridin-2-ylmethyl)-N-((6-(trifluoromethyl)pyridin-3-yl)methyl)-1H-indole-3-carboxamide], the IC50 under setting [1] is 0.048 µM. Moreover, under setting [2], the “S1P3 (% inh)” value amounted to 99%.

As for `COC(=O)c1c(C(=O)NCc2ccc(F)c(F)c2)c2ccc(OC(C)C)cc2n1Cc1ccccn1` [Compound 226, Methyl 3-(3,4-Difluorobenzylcarbamoyl)-6-isopropoxy-1-(pyridin-2-ylmethyl)-1H-indole-2-carboxylate], the IC50 under setting [1] was determined as 0.087 µM. Further, the “S1P3 (% inh)” value under setting [2] is 100%.

As for `CC(C)c1c(C(=O)NCc2ccc(F)c(F)c2)c2ccc(OCc3ncco3)cc2n1Cc1ccccc1` [Compound 131, 1-Benzyl-N-(3,4-difluorobenzyl)-2-isopropyl-6-(1,3-oxazol-2-ylmethoxy)-1H-indole-3-carboxamide], the IC50 under setting [1] is 0.89 µM. Besides, the “S1P3 (% inh)” value under setting [2] amounted to 96%.

Take `CC[C@H]1COC(c2ccc3c(C(=O)NCc4ccc(F)c(F)c4)c(C(C)C)n(Cc4ccccc4)c3c2)=N1` [Compound 75, (S)-1-Benzyl-N-(3,4-difluorobenzyl)-6-(4-ethyl-4,5-dihydrooxazol-2-yl)-2-isopropyl-1H-indole-3-carboxamide]: the IC50 under setting [1] is 0.017 µM. In addition, the “S1P3 (% inh)” value under setting [2] is 97%.

Consider `COCOc1ccc2c(C(=O)NCc3ccc(F)c(F)c3)c(C(C)C)n(Cc3ccccc3)c2c1` [Compound 26, 1-Benzyl-N-(3,4-difluorobenzyl)-2-isopropyl-6-(methoxymethoxy)-1H-indole-3-carboxamide], for which the Kb was 0.013 µM and the “S1P3 (% inh)” value is given as 39 nM (100) 13 nM %. In addition, where the note is “read-out: S1P3 IC50”, the IC50 amounted to 0.039 µM.

On to `COC(=O)c1ccc2c(C(=O)NCc3ccc(F)c(F)c3)c(C(C)C)n(Cc3ccccc3)c2c1`, for which, under setting [1], the IC50 was determined as 0.012 µM. In addition, the “S1P3 (% inh)” value under setting [2] was found to be 100%.

`CC(C)NC(=O)c1ccc2c(C(=O)NCc3ccc(F)c(F)c3)c(C(C)C)n(Cc3ccccc3)c2c1`: under setting [1], the IC50 was 0.634 µM. For the same compound, the “S1P3 (% inh)” value under setting [2] stood at 100%.

As for `CC(C)c1c(C(=O)NCc2ccc(F)c(F)c2)c2ccc(OC3CCCO3)cc2n1Cc1ccccn1` (stereo not drawn) [drawing 169], the IC50 under setting [1] worked out at 0.009 µM. Besides, the “S1P3 (% inh)” value under setting [2] is on record as 100%.

With `CCOC(=O)c1ccc2c(C(=O)NCc3cccc(F)c3)c(C(C)C)n(Cc3ccccn3)c2c1`, the IC50 came to 0.174 µM and the “S1P3 (% inh)” value was 174 nM (100) %.

The compound `CC(C)COC(=O)c1ccc2c(C(=O)NCc3ccc(F)c(F)c3)c(C(C)C)n(Cc3ccccc3)c2c1` came in with a 50% inhibitory concentration (IC50) of 0.012 µM. The “S1P3 (% inh)” value under setting [2] is reported as 12 nM (97) %.

`CC(C)Oc1ccc2c(C(=O)NCc3ccc(F)c(F)c3)c(C[N+]3(C)CCCC3)n(Cc3ccccn3)c2c1.[I-]` [Compound 176, 1-((3-(3,4-Difluorobenzylcarbamoyl)-6-isopropoxy-1-(pyridin-2-ylmethyl)-1H-indol-2-yl)methyl)-1-methylpyrrolidinium iodide]: the IC50 under setting [1] was 7.6 µM. For the same compound, the “S1P3 (% inh)” value under setting [2] worked out at 98%.

Regarding `CO/N=C/c1ccc2c(C(=O)NCc3ccc(F)c(F)c3)c(C(C)C)n(Cc3ccccc3)c2c1`, the IC50 under setting [1] came out at 0.021 µM. Besides, the “S1P3 (% inh)” value under setting [2] is given as 99%.

In the case of `CC(C)c1c(C(=O)NCc2ccc(F)c(F)c2)c2ccc([N+](=O)[O-])cc2n1Cc1ccccc1` [Compound 124, 1-Benzyl-N-(3,4-difluorobenzyl)-2-isopropyl-6-nitro-1H-indole-3-carboxamide], the “S1P3 (% inh)” value is listed as 242 nM (90) %. Under “read-out: S1P3 IC50”, the IC50 worked out at 0.242 µM.

As for `CC(C)Oc1ccc2c(C(=O)NCc3ccc(F)c(F)c3)c(CO)n(Cc3ccccn3)c2c1` [Compound 106, N-(3,4-Difluorobenzyl)-2-(hydroxymethyl)-6-isopropoxy-1-(pyridin-2-ylmethyl)-1H-indole-3-carboxamide], the IC50 under setting [1] was found to be 0.689 µM. Under setting [2], the “S1P3 (% inh)” value was 96%.

With `CCCNC(=O)c1ccc2c(C(=O)NCc3ccc(F)c(F)c3)c(C(C)C)n(Cc3ccccc3)c2c1`, the IC50 under setting [1] turned out to be 0.146 µM. Moreover, the “S1P3 (% inh)” value under setting [2] is 99%.

Turning to `CCCOc1ccc2c(C(=O)NCc3cccnc3)c(C(C)C)n(Cc3ccccn3)c2c1`, the IC50 under setting [1] is 1.2 µM. Also, under setting [2], the “S1P3 (% inh)” value was 99%.

As for `CC(C)c1c(C(=O)NCc2ccc(F)c(F)c2)c2ccc(NC3CCOC3)cc2n1Cc1ccccc1` (stereo not drawn) [Compound 126, 1-Benzyl-N-(3,4-difluorobenzyl)-2-isopropyl-6-(tetrahydrofuran-3-ylamino)-1H-indole-3-carboxamide], the half-maximal inhibitory concentration (IC50) under setting [1] was 0.177 µM. Under setting [2], the “S1P3 (% inh)” value is listed as 100%.

For `CC(C)c1c(C(=O)NCc2ccc(F)c(F)c2)c2ccc(/C=N/OC(C)(C)C)cc2n1Cc1ccccc1`, the IC50 under setting [1] was 0.145 µM. Besides, the “S1P3 (% inh)” value under setting [2] was 99%.

In the case of `CC(C)c1c(C(=O)NCc2ccc(F)c(F)c2)c2ccc(OC3CCCO3)cc2n1Cc1ccccc1` (stereo not drawn) [Compound 27, 1-Benzyl-N-(3,4-difluorobenzyl)-2-isopropyl-6-(tetrahydrofuran-2-yloxy)-1H-indole-3-carboxamide], the Kb stood at 0.011 µM and the “S1P3 (% inh)” value is reported as 6 nM (100) 11 nM %. Moreover, the IC50 (read-out: S1P3 IC50) was 0.006 µM.

On to `CC(C)c1c(C(=O)NCc2ccc(F)c(F)c2)c2ccc(NC3CCC3)cc2n1Cc1ccccc1` [Compound 190, 1-Benzyl-6-(cyclobutylamino)-N-(3,4-difluorobenzyl)-2-isopropyl-1H-indole-3-carboxamide], for which the “S1P3 (% inh)” value was 13 nM (100) %. Moreover, where the note is “read-out: S1P3 IC50”, the IC50 stood at 0.013 µM.

Take `CON=C(C)c1c(C(=O)NCc2ccc(F)c(F)c2)c2ccc(OC(C)C)cc2n1Cc1ccccn1` (stereo in doubt) [Compound 111, (E)-N-(3,4-Difluorobenzyl)-6-isopropoxy-2-(1-(methoxyimino)ethyl)-1-(pyridin-2-ylmethyl)-1H-indole-3-carboxamide]: the “S1P3 (% inh)” value is 263 nM (100) %. Besides, the IC50 (read-out: S1P3 IC50) turned out to be 0.263 µM.

For `CCO/N=C(\C)c1ccc2c(C(=O)NCc3ccc(F)c(F)c3)c(C(C)C)n(Cc3ccccc3)c2c1`, the IC50 under setting [1] worked out at 0.262 µM. Further, the “S1P3 (% inh)” value under setting [2] turned out to be 98%.

`CCCOc1ccc2c(C(=O)NCc3ccc(F)c(F)c3)c(C(C)C)n(Cc3ccccc3)c2c1` [Compound 10, 1-Benzyl-N-(3,4-difluorobenzyl)-2-isopropyl-6-propoxy-1H-indole-3-carboxamide]: for the setting “T24 cells stably expressing the human S1P3 receptor, second concentration in the cell, read-out: S1P3 Kb”, the Kb was 0.002 µM.

As to `COCCOc1ccc2c(C(=O)NCc3ccc(F)c(F)c3)c(C(C)C)n(Cc3ccccc3)c2c1` [Compound 17, 1-Benzyl-N-(3,4-difluorobenzyl)-2-isopropyl-6-(2-methoxyethoxy)-1H-indole-3-carboxamide], under setting [1], the IC50 was found to be 0.0065 µM. Under setting [2], the “S1P3 (% inh)” value was 99%.

These data come from patent US8524917B2, “6-substituted indole-3-carboxylic acid amide compounds having sphingosine-1-phosphate (S1P) receptor antagonist biological activity” (Allergan, Inc., priority 2007, dated 2013).
